Measurements from patent USRE49816E1, “Dipeptides as inhibitors of human immunoproteasomes” (CORNELL UNIVERSITY, priority 2014, dated 2024).

Tests used:
[1] = test system: Karpas 1106p cells; assay: Cytotoxicity (LD50) against Karpas lymphoma cells; format: cell-based, human; conditions: Table 3
Text: Table 3 lists the inhibition kinetic parameters, selectivity index, and calculated log Ps of selected dipeptides.

[2] = molecular target: hu c-20S β5c-subunit (Homo sapiens, UniProt P20618+P28074); assay: N,C-capped dipeptides IC50, succ-LLVY-AMC fluorescence assay; format: biochemical
Procedure: (§1) All inhibitory assays for N,C capped dipeptides were performed in a black solid-bottom 96-well plate. In general, compound plates were prepared starting from 10 mM in 3× series dilution to 15 μM. 1 μl of DMSO stock was transferred to a black 96-well plate and 100 μL of reaction mixture were added 15 μM N-acetyl-Alanine-Asparagine-Tryptophan-7-amino-4-methylcourmarin (Ac-ANW-AMC) or 25 μM succinyl-Leucine-Leucine-Valine-Tyrosine-7-amino-4-methyl-courmarin (succ-LLVY-AMC), 0.4 nM hu i-20S β5i-subunit or 0.2 nM hu c-20S β5c-subunit, 0.02% SDS, 1% BSA, 0.5 mM EDTA in 20 mM HEPES buffer at pH7.5. The plates were then spun at 1000 rpm for 1 minute, and the fluorescence units of each well were recorded at λex=360 nm, λem=460 nm for 2 hours. The slopes of the initial linear range of the time course were used to calculate the velocity, and relative activities were normalized to the velocities of the DMSO control.

[3] = molecular target: hu i-20S β5i-subunit (Homo sapiens, UniProt P20618+P28062); assay: N,C-capped dipeptides IC50, Ac-ANW-AMC fluorescence assay; format: biochemical; conditions: for SI (selectivity index): Hu c-20S over Hu i-20S
Procedure: as §1

Row | Compound | LD50 [1] | IC50 [2] | IC50 [3] | SI (selectivity index) [3]
1 | CC(=O)N[C@@H](Cc1ccc(F)cc1)C(=O)NCc1cccc2ccccc12 [DPLG-2109] | >100 µM | > 100000 nM | 57100 nM | >2
2 | COC[C@H](NC(=O)[C@H](CC(=O)NOC(C)(C)C)NC(=O)CCc1ccccc1)C(=O)NCc1cccc2cccnc12 [DPLG-2220] | 6.27 µM | 1350 nM | 70 nM | 19
3 | COC[C@H](NC(=O)[C@H](CC(=O)NOC(C)(C)C)NC(=O)CN1CCOCC1)C(=O)NCc1cccc2ccccc12 [DPLG-2143, (S)—N^4-(tert-butoxy)-N^1—((S)-3-methoxy-1-((naphthalen-1-ylmethyl)amino)-1-oxopropan-2-yl)-2-(2-morpholinoacetamido)succinamide] | >100 µM | 19600 nM | 250 nM | 78
4 | Cc1ccc(S(=O)(=O)N[C@@H](CCC(=O)NC(C)(C)C)C(=O)N[C@@H](C)C(=O)NOc2ccccc2)cc1 [DPLG-3017] | 6.33 µM | 600 nM | 99 nM | 6
5 | CC(C)(C)NC(=O)C[C@H](NC(=O)CCc1ccccc1)C(=O)N[C@@H](Cc1ccncc1)C(=O)NCc1cccc2ccccc12 [DPLG-21033] | – | 438 nM | 5.3 nM | 83
6 | C[C@H](NC(=O)[C@H](CCC(=O)NC(C)(C)C)NC(=O)CCc1ccccc1)C(=O)NCCc1cccc2ccccc12 [DPLG-3012] | 4.16 µM | 9650 nM | 930 nM | 10.4
7 | COC[C@H](NC(=O)[C@H](CC(=O)NOC(C)(C)C)NC(=O)Cc1ccccc1)C(=O)NCc1cccc2ccccc12 [DPLG-2222, (S)—N^4-(tert-butoxy)-N^1—((S)-3-methoxy-1-((naphthalen-1-ylmethyl)amino)-1-oxopropan-2-yl)-2-(2-phenylacetamido)succinamide] | >100 µM | 738 nM | 11 nM | 70
8 | Cc1ccc(S(=O)(=O)N[C@@H](CCC(=O)NC(C)(C)C)C(=O)N[C@@H](C)C(=O)NCc2cccc(C(F)(F)F)c2)cc1 [DPLG-3014] | 0.96 µM | 420 nM | 25 nM | 17
9 | CC(C)(C)NC(=O)CC[C@H](NC(=O)CCc1ccccc1)C(=O)N[C@@H](Cc1ccc(F)cc1)C(=O)NCc1cccc2ccccc12 [DPLG-3083] | 1.20 µM | 300 nM | 3.3 nM | 90
10 | COC[C@H](NC(=O)[C@H](CC(=O)NOC(C)(C)C)NC(=O)CCc1ccccc1)C(=O)NCc1cccc(OC)c1OC [DPLG-2211] | 4.18 µM | 1280 nM | 245 nM | 5
11 | C[C@H](NC(=O)[C@H](CC(=O)NC(C)(C)C)NC(=O)C(=O)c1c[nH]c2ccccc12)C(=O)NCc1cccc2ccccc12 [DPLG-3053] | 0.22 µM | – | – | –
12 | COC[C@H](NC(=O)[C@H](CC(=O)NC1COC1)NS(C)(=O)=O)C(=O)NCc1cccc2ccccc12 [DPLG-2219, (S)—N^1—((S)-3-methoxy-1-((naphthalen-1-ylmethyl)amino)-1-oxopropan-2-yl)-2-(methylsulfonamido)-N^4-(oxetan-3-yl)succinamide] | >100 µM | > 100000 nM | 4730 nM | >21
13 | CC(C)(C)NC(=O)C[C@H](NC(=O)C(=O)c1c[nH]c2ccccc12)C(=O)N[C@@H](Cc1ccc(F)cc1)C(=O)NCc1cccc2ccccc12 [DPLG-3084] | 0.084 µM | 37 nM | 1.4 nM | 26
14 | COC[C@H](NC(=O)[C@H](CC(=O)NOC(C)(C)C)NC(=O)CCCc1ccccc1)C(=O)NCc1cccc2ccccc12 [DPLG-2223, (S) N^4-(tert-butoxy)-N^1—((S)-3methoxy-1-((naphthalen-1-ylmethyl)amino)-1-oxopropan-2-yl)-2-(4-phenylbutanamido)succinamide] | 4.47 µM | 767 nM | 6.5 nM | 118
15 | CC(C)(C)NC(=O)C[C@H](NC(=O)CCc1ccccc1)C(=O)N[C@@H](Cc1ccc(F)cc1)C(=O)NCc1cccc(-c2ccccc2)c1 [DPLG-21050] | – | > 100000 nM | 26 nM | >3846
16 | C[C@H](NC(=O)[C@H](CCC(=O)NC(C)(C)C)NC(=O)CCc1ccccc1)C(=O)NOc1ccccc1 [DPLG-3013] | 11.03 µM | 660 nM | 230 nM | 2.9
17 | CC(C)(C)NC(=O)C[C@H](NC(=O)CCc1ccccc1)C(=O)N[C@@H](Cc1ccc(F)cc1)C(=O)NCc1cccc2ccccc12 [DPLG-3066] | 0.198 µM | > 100000 nM | 5.3 nM | >19000
18 | C[C@H](NC(=O)[C@H](CC(=O)NOC(C)(C)C)NC(=O)CCc1ccccc1)C(=O)NCc1ccnc2ccccc12 [DPLG-2068, (S)—N^4-(tert-butoxy)-N^1—((S)-1-oxo-1-((quinolin-4-ylmethyl)amino)propan-2-yl)-2-(3-phenylpropanami-do)succinamide] | >100 µM | 28400 nM | 3060 nM | 9.3
19 | COC[C@H](NC(=O)[C@H](CC(=O)NOC(C)(C)C)NC(=O)CCc1ccccc1)C(=O)NCc1cccc2c1NCCC2 [DPLG-2226, (S)—N^4-(tert-butoxy)-N^−1—((S)-3-methoxy-1-oxo-1-(((1,2,3,4-tetrahydroquinolin-8-yl)methyl)amino)propan-2-yl)-2-(3-phenylpropanamido)succinamide] | >100 µM | 78100 nM | 1150 nM | 68
20 | CC(C)(C)NC(=O)C[C@H](NC(=O)CCc1ccccc1)C(=O)N[C@@H](Cc1ccc(F)cc1)C(=O)NCc1ccc(-c2ccccc2)cc1 [DPLG-21049] | – | 700 nM | 133 nM | 5
21 | COC[C@H](NC(=O)CCc1ccccc1)C(=O)N[C@@H](C)C(=O)NCc1cccc2ccccc12 [DPLG-2048, (S)-3-methoxy-N—((S)-1-((naphthalen-1-ylmethyl)amino)-1-oxopropan-2-yl)-2-(3-phenylpropanamido)propanamide] | >100 µM | 59800 nM | 34900 nM | 1.7
22 | CC(C)[C@H](NC(=O)[C@H](CC(=O)NOC(C)(C)C)NC(=O)CCc1ccccc1)C(=O)NCc1cccc2ccccc12 [DPLG-2224, (S)—N^4-(tert-butoxy)-N^1—((S)-3-methyl-1-((naphthalen-1-ylmethyl)amino)-1-oxobutan-2-yl)-2-(3-phenylpropanamido)succinamide] | >100 µM | 228 nM | 4.3 nM | 53
23 | C[C@H](NC(=O)[C@H](CC(=O)NOC(C)(C)C)NC(=O)CCc1ccccc1)C(=O)NCc1cccc2ncccc12 [DPLG-2073, (S)—N^4-(tert-butoxpropan-2-yl)-2-(3-phenylpropanami-do)succinamide] | >100 µM | 13300 nM | 1370 nM | 10
24 | COC[C@H](NC(=O)[C@H](CC(=O)NOC(C)(C)C)NC(=O)c1cc(C)on1)C(=O)NCc1cccc2ccccc12 [DPLG-2144, (S)—N^4-(tert-butoxy)-N^1—((S)-3-methoxy-1-((napthalen-1-ylmethyl)amino)-1-oxopropan-2-yl)-2-(5-methylisoxazole-3-carboxamido)succinamide] | 1.47 µM | 620 nM | 9 nM | 69
25 | COC[C@H](NC(=O)CCc1ccccc1)C(=O)N[C@@H](Cc1ccc(F)cc1)C(=O)NCc1cccc2ccccc12 [DPLG-2054, (S)-3-(4-fluorophenyl)-2-((S)-3-methoxy-2-(3-phenylpropanamido)propanamido)-N-(naphthalen-1-ylmethyl)propanamide] | >100 µM | 75800 nM | > 100000 nM | <0.8
26 | COC[C@H](NC(=O)[C@H](CC(=O)NC(C)(C)C)NC(=O)c1cc(C)on1)C(=O)NCc1cccc2ccccc12 [DPLG-2244, (S)—N^4-(tert-butyl)-N^1((S)-3-methoxy-1-((naphthalen-1-ylmethyl)amino)-1-oxopropan-2-yl)-2-(5-methylisoxazole-3-carboxamido)succinamide] | 2.20 µM | – | – | –
27 | COC[C@H](NC(=O)[C@H](CC(=O)NC(C)(C)C)NC(=O)CCc1ccccc1)C(=O)NCc1cccc2ccccc12 [DPLG-2230, (S)—N^4-(tert-butyl)-N^1—((S)-3-methoxy-1-((naphthalen-1-ylmethyl)amino)-1-oxopropan-2-yl)-2-(3-phenylpropanamido)succinamide] | 1.11 µM | – | – | –
28 | C[C@H](NC(=O)[C@H](CC(=O)NOC(C)(C)C)NC(=O)c1cnccn1)C(=O)NCc1cccc2ccccc12 [DPLG-2098] | >100 µM | – | – | –
29 | C[C@H](NC(=O)[C@H](CC(=O)NOC(C)(C)C)NC(=O)Cc1ccccc1)C(=O)NCc1cccc2ccccc12 [DPLG-2142, (S)—N4-(tert-butoxy)-N1-((S)-1-((naphthalen-1-ylmethyl)amino)-1-oxopropan-2-yl)-2-(2-phenylacetamido)succinamide] | 9.1 µM | – | – | –
30 | COC[C@H](NC(=O)[C@H](CC(=O)NC1COC1)NS(=O)(=O)c1ccc(C)cc1)C(=O)NCc1cccc2ccccc12 [DPLG-2229] | >100 µM | 19300 nM | 69 nM | 236
